Source: patent publication US6569638B1, “Method for screening compounds for the treatment of neoplasia” (Cell Pathways, Inc, priority 2000, dated 2003)

Columns and labels:
LNCaP cells = test: Histone-associated fragmented DNA (apoptosis) in prostate tumor cells; type: cell-based, human; settings: 50 μM Compound B (free base), up to 4 days
Protocol: The androgen-sensitive prostate tumor cell line, LNCaP (from ATCC (Rockville, Md.)) was propagated under standard conditions using […] medium containing 5% fetal calve serum and 2 mM glutamine. Primary prostate epithelial cell cultures (PrEC) derived from normal prostate (from Clonetics Inc. (San Diego, Calif.)) were grown under the same conditions as the tumor cell line except a serum-free medium optimized for the growth of such cultures was used (Clonetics Inc). For the experiments, LNCaP or PrEC cells were seeded in 96 well plates at a density of 10,000 cells per well. After 24 hours, the cells were treated with either vehicle (0.1% DMSO) or 50 μM Compound B (free base) solubilized in DMSO. After various drug treatment times ([…]) the cells were lysed and processed for measurement of histone-associated DNA as an indicator of apoptotic cell death (see, Piazza et al., Cancer Research 57: 2452-2459, 1997).

[1] = system: SW-480 colon adenocarcinoma cells; test: DNA fragmentation (Cell Death Detection ELISA); type: cell-based, human
Protocol: Samples are then analyzed.

[2] = system: PKG in SW480 colon cancer cells; test: PKG assay of drug-treated cell lysates (GST-cGB-PDE5 solid phase substrate); type: cell-based, human; settings: 48 hrs, exisulind 200, 400, 600 μM, E4021 0.1, 1, 10 μM, with and without added cGMP
Protocol: To test the effect of cGMP-specific PDE inhibition on neoplasia containing the APC mutation, SW480 colon cancer cells were employed. SW 480 is known to contain the APC mutation. About 5 million SW480 cells in RPMI 5% serum are added to each of 8 dishes:
2-10 cm dishes—30 μL DMSO vehicle control (without drug),
3-10 cm dishes—200 μM, 400 μM, 600 μM exisulind in DMSO, and
The dishes are incubated for 48 hrs at 37° C. in 5% CO2 incubator.
The liquid media are aspirated from the dishes (the cells will attach themselves to the dishes). The attached cells are washed in each dish with cold PBS, and 200 μL cell lysis buffer (i.e., 50 mM Tris-HCl, 1% NP-40, 150 mM NaCl, 1 mM EDTA, 1 mM Na3VO4, 1 mM NaF, 500 μM IBMX with proteinase inhibitors) is added to each dish. Immediately after the cell lysis buffer is added, the lysed cells are collected by scraping the cells off each dish. The cell lysate from each dish is transferred to a microfuge tube, and the microfuge tubes are incubated at 4° C. for 15 minutes while gently agitating the microfuge tubes to allow the cells to lyse completely. […]
For each control or drug cell lysate sample to be evaluated, the reaction is started by adding phosphorylation buffer containing 10 μCi ^32P-γ-ATP solution (200 μM ATP, 4.5 mM MgCl; 5 mM KH2PO4; 5 mM K2HPO4;) to each mixture. […]

[3] = system: PKG in HCT116 colon cancer cells; test: PKG assay of drug-treated cell lysates; type: cell-based, human; settings: HCT116 cells (β-catenin mutation, no APC mutation)
Excerpt: To test the effect of cGMP-specific PDE inhibition on neoplasia containing the β-catenin mutation, HCT116 colon cancer cells were employed. HCT116 is known to contain the β-catenin mutation, but is known not to contain the APC mutation.
The same procedure is used to grow the HCT116 cells as is used in the SW480 procedure described above. In this experiment, only exisulind and controls were used.

[4] = system: polyp and normal colonic tissues; test: Apoptosis rates in paired biopsies of APC patients; type: in vivo, human

| Compound | histone-associated fragmented DNA (LNCaP cells) | EC50 [1] | PKG activity relative to control [2] | PKG activity relative to control [3] | apoptosis rates in polyp versus normal colonic tissues [4] |
| --- | --- | --- | --- | --- | --- |
| CC1=C(CC(=O)NCc2ccccc2)c2cc(F)ccc2/C1=C\c1ccncc1.Cl [Compound B, (Z)-5-fluoro-2-methyl-(4-pyridylidene)-3-(N-benzyl)indenylacetamide hydrochloride] | significant increase in fragmented DNA was detected after 24 hours of treatment | 15 µM |  |  |  |
| CC1=C(CC(=O)O)c2cc(F)ccc2/C1=C\c1ccc(S(C)(=O)=O)cc1 [exisulind, 5-fluoro-2-methyl-1-(p-methylsulfonylbenzylidene)-3-indenylacetic acid] |  |  | causes PKG activity to increase in a dose-dependent manner | phosphorylated to a greater extent than the corresponding controls | increased apoptosis rates in polyp, but not normal colonic tissues |
